Entries after “also recorded” stand apart in the source; their conditions may differ. Where two headings read alike, the source gives them in different places.

Data set [1] is described as follows: Cell viability of infected K562 cells by Celltiter Glo. The conditions noted are these: human, K562 cells infected with dengue NGC virus, K562 infection, same range of inhibitor concentrations, read-out: CC50 (concentration of 50% cell death). The format is cell-based, human. The protocol: (§1) For compound testing, K562 infection system was used. […] The cell viability is measured by Celltiter Glo.
(§2) To determine the EC50 (effective concentration of 50% inhibition of virus growth) and the cytotoxity CC50 (concentration of 50% cell death), a dose response curve covering at least four different concentrations was done in K562 infection. The decrease of the percentage of the dengue positive cells was then plotted against the concentrations of inhibitors, using a nonlinear regression analysis to obtain the EC50. CC50 was calculated using the same method using the cell viability over the same range of inhibitor concentrations.

Data set [2] has as its system Dengue NGC virus. Nature of the data set: Dengue NGC live virus infection in K562 cells, FACS (anti-E/anti-NS1 double positive cells). The data set is classed as cell-based. The conditions noted are these: for EC50: read-out: EC50 (effective concentration of 50% inhibition of virus growth); for percent Dengue positive cells (E and NS1 double positive): K562, Dengue NGC, 48 hours, 4.8% positive without treatment; for inhibition of viral growth / effect on infection: K562 infection assay. The method, then:
as §1, §2

In another data set the test system is K562 cells. Nature of the data set: Cell viability of infected K562 cells by Celltiter Glo. The data set is classed as cell-based, human. As to conditions: for CC50: K562 infection, same range of inhibitor concentrations, read-out: CC50 (concentration of 50% cell death). The method, then: as §1, §2
For data set [3], the system named is dengue strain MY10340. The experiment in a line: Dengue infection of human PBMCs, FACS. The data set is classed as cell-based, Dengue virus. The conditions noted are these: human PBMC, two days, enhancing antibodies, increasing concentration. The method, then:
as §1
Statins are a safe and widely used drug for the treatment of hypercholesterolemia (12). The toxicity observed in K562 cells could be due to the specific effect of Statins in a cancer cell line (1,22). For avoiding the toxicity in cancer or transformed cell lines, health donors' PBMC were collected, and tested the effect of statin in PBMC infection was tested. PBMCs were infected with a clinically isolated dengue strain MY10340 for two days in the presence of enhancing antibodies from dengue positive plasma. The infection was assessed by FACS and plaque assay as for K562 infection.

In data set [4] the test system is dengue strain MY10340. The experiment in a line: Live virus titer in PBMC infection by plaque assay. The format is cell-based, Dengue virus. The conditions noted are these: human PBMC, two days, increasing concentration.
Experimental: PBMC (Peripheral Blood Mononuclear Cell) were prepared from buffy coat from healthy donors using ficoll gradient. […] For virus titer analysis, the level of live virus was determined by plaque assay in BHK-21 cells (ATCC) in triplicate.
For compound testing, K562 infection system was used. 50,000 K562 cells were plated in 96 well in 100 ul and infected the second day with 1 m.o.i of NGC virus for two days. Compounds were added together with the virus and the viral growth was measured by FACS with two antibodies, the anti-Dengue Envelope protein antibody (ATCC) (26) conjugated to Alexa 680 (Invitrogen) and the anti NS1 antibody (ATCC) conjugated to Alexa 488. The cell viability is measured by Celltiter Glo. The supernatant after infection were collected for plaque assay for live virus titer. For PBMC infection, conditions were the same as for K562 infection except 500,000 total cells were plated and an 1:10,000 diluted dengue IgG positive serum was added to the infection.
Data set [5] concerns Dengue NGC virus. The experiment in a line: Plaque assay of supernatant after K562 infection. The format is cell-based. The conditions noted are these: infected K562 cells, 48 hours, 0.1 μM and 10 μM. The protocol:
The human lung-epithelial carcinoma A549 cell-line and hematopoetic cell line K562 are from ATCC and cultured according to instruction. PBMC (Peripheral Blood Mononuclear Cell) were prepared from buffy coat from healthy donors using ficoll gradient. The A549 dengue NGC replicon cells used for the work contains non-infectious, self replicating Dengue virus with a Renilla luciferase reporter under puromycin selection (24). Cells were cultured in F12 (Hams) medium (Invitrogen, Carlsbad, Calif.) supplemented with 10% fetal bovine serum (FBS) and puromycin (10-50 μg/ml). Cells were assayed in F12 medium supplement with 2% FBS without puromycin. Dengue NGC virus (GenBank number M29095) and the Malaysian clinical isolates MY10340 (from Shamala Devi, University of Malaya, Malaysia) were propagated in insect cells C6/36 (ATCC). For virus titer analysis, the level of live virus was determined by plaque assay in BHK-21 cells (ATCC) in triplicate.
as §1

Setting [6] is: K562 cells, 1 m.o.i NGC virus, two days, decrease of percentage of dengue positive cells by FACS.

For the compound `CC(C)n1c(/C=C/C(O)CC(O)CC(=O)O)c(-c2ccc(F)cc2)c2ccccc21` (stereo not drawn) [Fluvastatin], in data set [1], the CC50 at 2 days worked out at 48.8 µM. In addition, the EC50 in the data set with Dengue NGC virus [2] (Dengue virus, K562, 48 h) was more than 50 µM.
For `CC(C)C[C@H](NC(=O)c1ccc(NCc2cnc[nH]2)cc1-c1cccc2ccccc12)C(=O)O` [GGTI 2133], the CC50 with K562 cells was more than 50 µM. In addition, the EC50 in the data set with Dengue NGC virus [2] (setting [6]) is more than 50 µM.
Regarding `CC[C@H](C)C(=O)O[C@H]1C[C@@H](C)C=C2C=C[C@H](C)[C@H](CC[C@@H]3C[C@@H](O)CC(=O)O3)[C@H]21` [Lovastatin], the “percentage of infected cells” value in the data set on dengue strain MY10340 [3] is reported as “decreased”. The CC50 at 2 days in data set [1] stood at 46.8 µM. Further, the EC50 in the data set with Dengue NGC virus [2] (48 h, K562 cells, 1 m.o.i NGC virus, two days, decrease of percentage of dengue positive cells by FACS) was more than 50 µM. Further, the virus titer result in the data set on dengue strain MY10340 [4] was “decreased”.
As for `C=C(CC[C@]12O[C@H](C(=O)O)[C@@](O)(C(=O)O)[C@](C(=O)O)(O1)[C@H](OC(=O)/C=C/[C@@H](C)C[C@@H](C)CC)[C@H]2O)[C@@H](OC(C)=O)[C@H](C)Cc1ccccc1` [Zaragozic Acid, Zaragozic acid A], the “fold less plaque than cells treated with DMSO alone” value with Dengue NGC virus [5] was 2-6 fold. Also, in the data set with K562 cells (K562 cells, dose range, 48 hours, listed as ZGA), the “effect on cell viability / cytotoxicity” value was “no significant cytotoxicity; also recorded: no effect”. For the same compound, the CC50 with K562 cells is more than 50 µM. The “percent Dengue positive cells (E and NS1 double positive)” value in the data set on Dengue NGC virus [2] (0.1 μM ZGA) is on record as 2.8%; in the data set on Dengue NGC virus [2] (10 μM ZGA) it was 0.6%. Moreover, in the data set on Dengue NGC virus [2] (setting [6]), the EC50 turned out to be 8.3 µM. In addition, the “inhibition of viral growth / effect on infection” value with Dengue NGC virus [2] is listed as “significantly inhibited”.
In the case of Hymeglusin, the CC50 with K562 cells is approximately 50 µM. In the data set on Dengue NGC virus [2] (setting [6]), the EC50 was 4.5 µM. The “inhibition of viral growth / effect on infection” value with Dengue NGC virus [2] is on record as “significantly inhibited”.

(Values after US20100183613A1, “METHODS OF USING MEVALONATE DECARBOXYLASE (MVD) ANTAGONISTS” (NOVARTIS AG, priority 2008, published 2010).)
